We go through 1 compound from publication PMC8609006, “Design of modular autoproteolytic gene switches responsive to anti-coronavirus drug candidates” (Nature Communications, 2021).

The assay has as its target T1, SARS-CoV-2 Mpro (Mpro(S2), 3CLpro) (Severe acute respiratory syndrome coronavirus 2, UniProt P0DTD1).
T1 construct: gene rep; mature Mpro (nsp5) cut from polyprotein pp1a/pp1ab, human codon-optimized, fused N-terminally to TetR-MproCSOPT-VP64 (pNF167), expressed in HEK293T; TAGS plasmids OK425851-OK425853 (not assigned singly)
The class given is cell-based.

On to `CC(C)(C)NC(=O)N[C@H](C(=O)N1C[C@H]2[C@@H]([C@H]1C(=O)NC(CC1CCC1)C(=O)C(N)=O)C2(C)C)C(C)(C)C` (stereo partly shown) [Boceprevir], for which the “Mpro-TAGS nanoLuc gain-of-signal reporter in HEK293T cells, 24 h” value is “GRL-0496 and Boceprevir only slightly induced gene expression”.
